A word on the inhibition: it is the relative decrease from the control value, in per cent.

Here are results for 24 compounds from patent US7319098B2, “1,3-dioxoisoindole derivatives having selective antagonism of T-type calcium channel” (Korea Institute of Science and Technology, priority 2006, dated 2008).

The target in this assay is T1, α1G T-type Ca2+ channels (Homo sapiens, UniProt O43497).
T1 construct: expressed in transfected cells; host or cells: HEK293 cells stably expressing α1G and Kir2.1
T1 sequence (O43497 whole entry): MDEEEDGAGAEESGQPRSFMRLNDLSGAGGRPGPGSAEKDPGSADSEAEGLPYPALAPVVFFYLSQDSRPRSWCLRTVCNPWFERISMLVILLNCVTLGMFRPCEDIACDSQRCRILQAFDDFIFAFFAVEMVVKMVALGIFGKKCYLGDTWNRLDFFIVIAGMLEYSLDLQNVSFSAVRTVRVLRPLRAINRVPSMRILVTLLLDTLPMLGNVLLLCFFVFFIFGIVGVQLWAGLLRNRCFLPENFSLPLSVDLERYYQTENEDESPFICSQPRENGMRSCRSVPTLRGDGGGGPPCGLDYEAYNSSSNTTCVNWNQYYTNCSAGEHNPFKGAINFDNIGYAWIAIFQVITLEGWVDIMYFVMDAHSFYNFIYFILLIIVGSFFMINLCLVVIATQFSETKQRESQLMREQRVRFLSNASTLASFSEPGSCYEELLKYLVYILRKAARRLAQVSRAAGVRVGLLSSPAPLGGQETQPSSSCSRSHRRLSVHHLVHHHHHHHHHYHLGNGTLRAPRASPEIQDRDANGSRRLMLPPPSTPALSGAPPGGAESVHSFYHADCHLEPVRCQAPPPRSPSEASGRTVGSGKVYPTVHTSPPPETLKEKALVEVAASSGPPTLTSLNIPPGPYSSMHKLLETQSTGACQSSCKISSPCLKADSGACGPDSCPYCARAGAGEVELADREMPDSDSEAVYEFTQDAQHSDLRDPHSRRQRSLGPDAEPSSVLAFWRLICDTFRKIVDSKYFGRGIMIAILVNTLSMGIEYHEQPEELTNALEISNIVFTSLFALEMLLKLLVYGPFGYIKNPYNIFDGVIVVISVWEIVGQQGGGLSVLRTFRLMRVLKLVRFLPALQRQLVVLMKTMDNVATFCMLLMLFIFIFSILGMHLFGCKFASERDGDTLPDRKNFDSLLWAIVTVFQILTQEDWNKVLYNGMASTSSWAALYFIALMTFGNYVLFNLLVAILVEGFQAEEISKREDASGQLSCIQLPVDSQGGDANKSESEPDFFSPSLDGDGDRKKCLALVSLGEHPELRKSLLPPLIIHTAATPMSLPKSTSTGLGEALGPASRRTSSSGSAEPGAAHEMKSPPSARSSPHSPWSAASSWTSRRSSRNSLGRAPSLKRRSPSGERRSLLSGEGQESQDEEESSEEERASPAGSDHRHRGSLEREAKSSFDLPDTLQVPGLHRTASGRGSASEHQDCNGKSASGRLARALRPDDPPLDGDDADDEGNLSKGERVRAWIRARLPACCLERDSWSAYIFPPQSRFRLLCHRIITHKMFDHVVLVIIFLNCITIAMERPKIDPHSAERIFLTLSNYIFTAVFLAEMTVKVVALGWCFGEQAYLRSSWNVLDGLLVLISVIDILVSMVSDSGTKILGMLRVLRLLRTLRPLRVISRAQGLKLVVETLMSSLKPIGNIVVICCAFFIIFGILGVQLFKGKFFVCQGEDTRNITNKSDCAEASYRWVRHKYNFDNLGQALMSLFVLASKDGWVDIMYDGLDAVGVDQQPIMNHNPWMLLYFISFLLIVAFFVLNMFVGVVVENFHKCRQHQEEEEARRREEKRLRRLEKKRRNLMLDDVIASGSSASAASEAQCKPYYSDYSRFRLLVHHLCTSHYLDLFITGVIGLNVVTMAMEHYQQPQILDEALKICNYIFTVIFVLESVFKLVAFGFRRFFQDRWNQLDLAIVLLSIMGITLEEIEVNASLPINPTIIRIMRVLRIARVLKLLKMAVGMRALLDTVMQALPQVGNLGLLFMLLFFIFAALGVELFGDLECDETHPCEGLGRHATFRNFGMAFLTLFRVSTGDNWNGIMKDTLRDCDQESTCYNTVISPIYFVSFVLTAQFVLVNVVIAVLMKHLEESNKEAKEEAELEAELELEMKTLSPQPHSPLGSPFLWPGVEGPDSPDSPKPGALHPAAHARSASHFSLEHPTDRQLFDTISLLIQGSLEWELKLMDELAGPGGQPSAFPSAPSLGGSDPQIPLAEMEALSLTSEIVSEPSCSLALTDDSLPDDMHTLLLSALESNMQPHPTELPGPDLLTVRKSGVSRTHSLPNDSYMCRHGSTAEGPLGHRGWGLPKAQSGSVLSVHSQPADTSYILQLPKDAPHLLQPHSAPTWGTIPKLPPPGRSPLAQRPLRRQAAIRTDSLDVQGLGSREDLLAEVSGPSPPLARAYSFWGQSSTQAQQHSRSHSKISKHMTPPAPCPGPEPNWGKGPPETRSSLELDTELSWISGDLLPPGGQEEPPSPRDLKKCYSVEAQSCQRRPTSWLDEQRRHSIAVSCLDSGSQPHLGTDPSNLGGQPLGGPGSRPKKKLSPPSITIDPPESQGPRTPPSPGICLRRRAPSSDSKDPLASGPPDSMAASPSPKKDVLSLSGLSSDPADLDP
Kind of assay: Screening of activity against T-type calcium channel with FDSS6000 (fluorescence, KCl-induced [Ca2+]i increase). It counts as cell-based. Conditions: 100 μM; HEK293 cells expressing α1G and Kir2.1; read-out: Inhibitory effect (%) of T-type calcium channel, Inhibition (%). How it is done:
Meanwhile, the antagonistic activity of the novel compound of Formula (1) herein against T-type calcium channel was tested as described below. The synthesized compounds were tested for the activity against T-type calcium channel with FDSS6000. Compounds with good activity were selected and IC50 values were exactly obtained by using electrophysiological whole cell patch clamp method. HEK293 cells which stably express both α1G and Kir2.1 subunits were grown in Dulbecco's modified Eagle's medium supplemented with 10% (v/v) fetal bovine serum, penicillin (100 U/mL), streptomycin (100 μg/mL), geneticin (500 μg/mL), and +puromycin (I μg/mL) at 37° C. in a humid atmosphere of 5% CO2 and 95% air. Cells were seeded into 96-well black wall clear bottom plates at a density of 4×10^4 cells/well and were used the next day for high-throughput screening (HTS) FDSS6000 assay. For FDSS6000 assay, cells were incubated for 60 min at room temperature with 5 μM fluo3/AM and 0.001% Pluronic F-127 in a HEPES-buffered solution composed of (in mM): 115 NaCl, 5.4 KCl, 0.8 MgCl2, 1.8 CaCl2, 20 HEPES, 13.8 glucose (pH 7.4). During the fluorescence-based FDSS6000 assay, cells in HEPES-buffered solution containing 10 mM CaCl2 were pretreated with a certain concentration of test compounds and then treated with high concentration of KCl ([…]). α1G T-type Ca^2+ channels were activated by using high concentration of KCl (70 mM) and the increase in [Ca^2+]i by KCl-induced depolarization was detected. During the whole procedure, cells were washed using the BIO-TEK 96-well washer. All data were collected and analyzed using FDSS6000 and related software (Hamamatsu, Japan). The IC50 results of examining the inhibitory effects of the compounds herein selected with FDSS6000 on the calcium influx through the T-type calcium channel are provided in TABLEs 1 and 2.
`O=C(NCCN1CCCCC1)c1ccc2c(c1)C(=O)N(c1ccccc1)C2=O` [Compound 1, 1-{2-[(1,3-dioxo-2-phenyl-2,3-dihydro-1H-isoindol-5-carbonyl)-amino]-ethyl}-piperidinium chloride]: the inhibition at 100 µM turned out to be 28.1%.

Regarding `CC1CCCCN1CCCNC(=O)c1ccc2c(c1)C(=O)N(c1ccccc1)C2=O` (stereo not drawn) [Compound 2, 1-{3-[(1,3-dioxo-2-phenyl-2,3-dihydro-1H-isoindol-5-carbonyl)-amino]-propyl}-2-methyl-piperidinium chloride], the inhibition at 100 µM is 33.8%.

With `O=C(NCCN1CCCC1)c1ccc2c(c1)C(=O)N(c1ccccc1)C2=O` [Compound 3, 1-{2-[(1,3-dioxo-2-phenyl-2,3-dihydro-1H-isoindol-5-carbonyl)-amino]-ethyl}-pyrrolidinium chloride], the inhibition at 100 µM was determined as 20.3%.

`O=C(NCCCN1CCCC1)c1ccc2c(c1)C(=O)N(c1ccccc1)C2=O` [Compound 4, 1-{3-[(1,3-dioxo-2-phenyl-2,3-dihydro-1H-isoindol-5-carbonyl)-amino]-propyl}-pyrrolidinium chloride]: the inhibition at 100 µM amounted to 38.7%.

For `O=C(NCCN1CCOCC1)c1ccc2c(c1)C(=O)N(c1ccccc1)C2=O` [Compound 5, 4-{2-[(1,3-dioxo-2-phenyl-2,3-dihydro-1H-isoindol-5-carbonyl)-amino]-ethyl}-4-morpholinium chloride], the inhibition at 100 µM turned out to be 22.7%.

On to `O=C(NCCCN1CCOCC1)c1ccc2c(c1)C(=O)N(c1ccccc1)C2=O` [Compound 6, 4-{3-[(1,3-dioxo-2-phenyl-2,3-dihydro-1H-isoindol-5-carbonyl)-amino]-propyl}-4-morpholinium chloride], for which the inhibition at 100 µM is 22.3%.

As for `O=C(NCCN1CCCCC1)c1ccc2c(c1)C(=O)N(c1ccccc1F)C2=O` [Compound 7, 1-(2-{[2-(2-fluoro-phenyl)-1,3-dioxo-2,3-dihydro-1H-isoindol-5-carbonyl]-amino}-ethyl)-piperidinium chloride], the inhibition at 100 µM was 40.6%.

`CC1CCCCN1CCCNC(=O)c1ccc2c(c1)C(=O)N(c1ccccc1F)C2=O` (stereo not drawn) [Compound 8, 1-(3-{[2-(2-fluoro-phenyl)-1,3-dioxo-2,3-dihydro-1H-isoindol-5-carbonyl]-amino}-propyl)-2-methyl-piperidinium chloride]: the inhibition at 100 µM came to 36.8%.

With `O=C(NCCN1CCCC1)c1ccc2c(c1)C(=O)N(c1ccccc1F)C2=O` [Compound 9, 1-(2-{[2-(2-fluoro-phenyl)-1,3-dioxo-2,3-dihydro-1H-isoindol-5-carbonyl]-amino}-ethyl)-pyrrolidinium chloride], the inhibition at 100 µM is 39.7%.

Regarding `O=C(NCCCN1CCCC1)c1ccc2c(c1)C(=O)N(c1ccccc1F)C2=O` [Compound 10, 1-(3-{[2-(2-fluoro-phenyl)-1,3-dioxo-2,3-dihydro-1H-isoindol-5-carbonyl]-amino}-propyl)-pyrrolidinium chloride], the inhibition at 100 µM turned out to be 32.5%.

`O=C(NCCN1CCOCC1)c1ccc2c(c1)C(=O)N(c1ccccc1F)C2=O` [Compound 11, 4-(2-{[2-(2-fluoro-phenyl)-1,3-dioxo-2,3-dihydro-1H-isoindol-5-carbonyl]-amino}-ethyl)-4-morpholinium chloride]: the inhibition at 100 µM was 22.7%.

Turning to `O=C(NCCCN1CCOCC1)c1ccc2c(c1)C(=O)N(c1ccccc1F)C2=O` [Compound 12, 4-(3-{[2-(2-fluoro-phenyl)-1,3-dioxo-2,3-dihydro-1H-isoindol-5-carbonyl]-amino}-propyl)-4-morpholinium chloride], the inhibition at 100 µM came out at 21.1%.

Consider `O=C(NCCN1CCCCC1)c1ccc2c(c1)C(=O)N(c1cccc(F)c1)C2=O` [Compound 13, 1-(2-{[2-(3-fluoro-phenyl)-1,3-dioxo-2,3-dihydro-1H-isoindol-5-carbonyl]-amino}-ethyl)-piperidinium chloride], for which the inhibition at 100 µM was determined as 43%.

In the case of `CC1CCCCN1CCCNC(=O)c1ccc2c(c1)C(=O)N(c1cccc(F)c1)C2=O` (stereo not drawn) [Compound 14, 1-(3-{[2-(3-fluoro-phenyl)-1,3-dioxo-2,3-dihydro-1H-isoindol-5-carbonyl]-amino}-propyl)-2-methyl-piperidinium chloride], the inhibition at 100 µM came to 44.2%.

In the case of `O=C(NCCN1CCCC1)c1ccc2c(c1)C(=O)N(c1cccc(F)c1)C2=O` [Compound 15, 1-(2-{[2-(3-fluoro-phenyl)-1,3-dioxo-2,3-dihydro-1H-isoindol-5-carbonyl]-amino}-ethyl)-pyrrolidinium chloride], the inhibition at 100 µM was 25.8%.

With `O=C(NCCCN1CCCC1)c1ccc2c(c1)C(=O)N(c1cccc(F)c1)C2=O` [Compound 16, 1-(3-{[2-(3-fluoro-phenyl)-1,3-dioxo-2,3-dihydro-1H-isoindol-5-carbonyl]-amino}-propyl)-pyrrolidinium chloride], the inhibition at 100 µM came out at 30%.

With `O=C(NCCN1CCOCC1)c1ccc2c(c1)C(=O)N(c1cccc(F)c1)C2=O` [Compound 17, 4-(2-{[2-(3-fluoro-phenyl)-1,3-dioxo-2,3-dihydro-1H-isoindol-5-carbonyl]-amino}-ethyl)-4-morpholinium chloride], the inhibition at 100 µM was found to be 29.2%.

As to `O=C(NCCCN1CCOCC1)c1ccc2c(c1)C(=O)N(c1cccc(F)c1)C2=O` [Compound 18, 4-(3-{[2-(3-fluoro-phenyl)-1,3-dioxo-2,3-dihydro-1H-isoindol-5-carbonyl]-amino}-propyl)-4-morpholinium chloride], the inhibition at 100 µM is 22.7%.

In the case of `O=C(NCCN1CCCCC1)c1ccc2c(c1)C(=O)N(c1ccc(F)cc1)C2=O` [Compound 19, 1-(2-{[2-(4-fluoro-phenyl)-1,3-dioxo-2,3-dihydro-1H-isoindol-5-carbonyl]-amino}-ethyl)-piperidinium chloride], the inhibition at 100 µM worked out at 45.7%.

Regarding `CC1CCCCN1CCCNC(=O)c1ccc2c(c1)C(=O)N(c1ccc(F)cc1)C2=O` (stereo not drawn) [Compound 20, 1-(3-{[2-(4-fluoro-phenyl)-1,3-dioxo-2,3-dihydro-1H-isoindol-5-carbonyl]-amino}-propyl)-2-methyl-piperidinium chloride], the inhibition at 100 µM was 44.7%.

In the case of `O=C(NCCN1CCCC1)c1ccc2c(c1)C(=O)N(c1ccc(F)cc1)C2=O` [Compound 21, 1-(2-{[2-(4-fluoro-phenyl)-1,3-dioxo-2,3-dihydro-1H-isoindol-5-carbonyl]-amino}-ethyl)-pyrrolidinium chloride], the inhibition at 100 µM turned out to be 19.4%.

In the case of `O=C(NCCCN1CCCC1)c1ccc2c(c1)C(=O)N(c1ccc(F)cc1)C2=O` [Compound 22, 1-(3-{[2-(4-fluoro-phenyl)-1,3-dioxo-2,3-dihydro-1H-isoindol-5-carbonyl]-amino}-propyl)-pyrrolidinium chloride], the inhibition at 100 µM was 19.3%.

Consider `O=C(NCCN1CCOCC1)c1ccc2c(c1)C(=O)N(c1ccc(F)cc1)C2=O` [Compound 23, 4-(2-{[2-(4-fluoro-phenyl)-1,3-dioxo-2,3-dihydro-1H-isoindol-5-carbonyl]-amino}-ethyl)-4-morpholinium chloride], for which the inhibition at 100 µM was 14.5%.

Consider `O=C(NCCCN1CCOCC1)c1ccc2c(c1)C(=O)N(c1ccc(F)cc1)C2=O` [Compound 24, 4-(3-{[2-(4-fluoro-phenyl)-1,3-dioxo-2,3-dihydro-1H-isoindol-5-carbonyl]-amino}-propyl)-4-morpholinium chloride], for which the inhibition at 100 µM worked out at 21.4%.
